Reference: US7488820B2, “Naphthofluorescein-based metal sensors, and methods of making and using the same” (Massachusetts Institute of Technology, priority 2004, dated 2009)

Experiments:
[1] = Ratiometric fluorescence responses (F624/F528) of MS4 and MS5 to various metal ions; conditions: 5 μM probe, 50 equiv metal ion, 50 mM HEPES, 100 mM KCl, pH 8, excitation 499 nm
Description: (§1) FIG. 9 depicts the ratiometric fluorescence spectroscopic responses of MS4 to various metal ions. Bars represent the ratio of fluorescence intensities collected at 624 and 528 nm (F624/F528). All spectra were acquired in 50 mM HEPES, 100 mM KCl, pH 8. Grey bars represent the addition of an excess of the appropriate metal ion (50 equiv metal ion of interest) to a 5 μM solution of MS4. Dark grey bars represent the subsequent addition of 50 equiv Hg^2+ to the solution. Excitation was provided at 499 nm.
as §1, with “FIG. 10” for “FIG. 9”, “of MS5” for “of MS4”, “of MS5.” for “of MS4.”
Millipore water was used to prepare all aqueous solutions. […] Fluorescence spectra were collected by using a Photon Technology International (Lawrenceville, N.J.) Quanta Master 4L-format scanning spectrofluorimeter equipped with an LPS-220B 75-W xenon lamp and power supply, A-1010B lamp housing with integrated igniter, switchable 814 photon-counting/analog PMT detector, and a MD-5020 motor driver. […]

[2] = Fluorescence spectroscopy: quantum yield and ratiometric emission response to Zn2+; type: physicochemical; conditions: pH 7.5
Description: FIG. 3. Ratiometric fluorescence spectroscopic response of 20 μM ZNP1 to buffered Zn^2+ solutions. Spectra were acquired in 50 mM HEPES, 100 mM KCl, pH 7.5. Excitation was provided at 499 nm. A standard EDTA/Ca^2+/Zn^2+ dual-metal buffer system was employed to deliver controlled concentrations of buffered free Zn^2+. The spectra shown are for free Zn^2+ buffered at 0, 0.17, 0.42, 0.79, 1.3, 2.1, 3.4, 5.6, and 10.2 nM, respectively.
Quantum yield, Φ, may be obtained by comparison of the integrated area of the corrected emission spectrum of the sample with that of a reference solution. A preferred reference solution is a solution of fluorescein in 0.1 N NaOH, quantum efficiency 0.95. The concentration of the reference is adjusted to match the absorbance, Abs, of the test sample. The quantum yields may be calculated using the following equation:
ZNP1 was evaluated at physiological ionic strength and pH [50 mM HEPES (4-(2-hydroxyethyl)-1-piperazineethanesulfonic acid), 100 mM KCl, pH 7.5] in the presence of EDTA (ethylenediaminetetraacetic acid) to scavenge adventitious metal ions. […] The quantum yield for apo ZNP1 is 0.02.
The observed changes in absorption and emission spectra occur up to a 1:1 [Zn^2+][ZNP1] ratio, indicating the likely formation of a 1:1 complex. Upon addition of Zn^2+, the visible absorption profile of the ZNP1 chemosensor red shifts to a single broad peak centered at 547 nm (ε=2.2×10^4 M^−1cm^−1). Excitation at 499 nm produces a fluorescence spectrum featuring one dominant emission band centered at 624 nm with a minor component centered at 545 nm (FIG. 3). The quantum yield for Zn^2+-ZNP1 complex is 0.05. […] The ratio of naphthofluorescein- to fluorescein-like emission intensities (λ624/λ528) upon 499-nm excitation varies from 0.4 in the absence of Zn^2+ to 7.1 in the presence of Zn^2+, an 18-fold increase.
(§2) Millipore water was used to prepare all aqueous solutions, which were passed through 0.2 um cellulose filters prior to use. All spectroscopic measurements were performed under simulated physiological conditions using buffer solutions containing 50 mM HEPES, 4-(2-hydroxyethyl)-1-piperazineethanesulfonic acid, and 100 mM KCl adjusted to pH 7.5. A glass electrode (Orion), calibrated prior to each use, was used to determine solution pH. Solutions of Zn^2+ were prepared from 100 mM stock solutions of ZnCl2 in water. Absorption spectra were recorded on a Hewlett-Packard 8453A diode array spectrophotometer, and fluorescence spectra on a Photon Technology International (PTI) Quanta Master 4 L-format scanning spectrofluorimeter equipped with an LPS-220B 75-watt xenon lamp and power supply, A-1010B lamp housing with integrated igniter, switchable 814 photon-counting/analog photomultiplier detection unit, and MD-5020 motor driver. Samples for absorption and emission measurements were contained in 1 cm×1 cm quartz cuvettes (3.5 mL volume, Stama). The experiments for measuring quantum yields, apparent dissociation constants (Kd), and metal ion selectivities were performed by using standard protocols. Quantum yields were determined by reference to fluorescein in 0.1 N NaOH (Φ=0.95). Confocal fluorescence imaging experiments were performed with a Zeiss LSM510 laser scanning microscopy system containing an Axiovert 200M inverted fluorescence microscope. The microscope was equipped with an argon ion laser (488-nm excitation) and objective lenses (100×), and scanning was performed using the META detection system operating in lambda mode (Zeiss) with 10.7 nm collection windows. During imaging measurements, cell samples were kept on the microscope stage in a CTI-3700 incubator at 37° C. under 5% CO2. Additions of Zn^2+ as the pyrithione complex (2-mercaptopyridine N-oxide), TPEN [N,N,N′,N′-tetra(2-picolyl)ethylenediamine], or SNOC (S-nitrosocysteine) to cell samples were performed directly on the microscope stage by bath application to the media. SNOC was prepared immediately before use.

[3] = Metal ion selectivity of the ratiometric fluorescence response (F624/F528) of ZNP1
Description: FIG. 4. Ratiometric fluorescence spectroscopic responses of ZNP1 to various metal ions. Bars represent the ratio of fluorescence intensities collected at 624 and 528 nm (F624/F528). All spectra were acquired in 50 mM HEPES, 100 mM KCl, pH 7.5. White bars represent the addition of an excess of the appropriate metal ion (2 mM for Ca^2+ and Mg^2+, 100 μM for all other metal ions) to a 10 μM solution of ZNP1. Grey bars represent the subsequent addition of 100 μM Zn^2+ to the solution. Excitation was provided at 499 nm.
The emission profiles of apo or Zn^2+-bound ZNP1 are unperturbed in the presence of 2 mM Ca^2+ or Mg^2+, indicating a degree of selectivity for Zn^2+ over these biologically competing alkaline earth cations.
as §2, with “SNOC was prepared immediately before use.” left out

COS-7 cells = experiment: Cell membrane permeability and ratio confocal fluorescence imaging of intracellular Zn2+ in live COS-7 cells; type: cell-based
Description: FIG. 5. Ratio confocal fluorescence imaging in COS-7 cells using the Zeiss LSM510 META system operating in the lambda mode. Fluorescence was collected in 10.7 nm optical windows centered at 612 and 526 nm. Pseudocolor figures depict the ratio of fluorescence intensities at these two emission wavelengths. (a) Ratio confocal fluorescence images of live COS-7 cells labeled with ZNP1. Incubation of cells with 20 μM ZNP1-Ac for 20 min at 37° C. (left), ZNP1-stained cells loaded with 50 μM Zn(pyrithione)2 for 5 min (middle), and reversal of the cytosolic ratio enhancements with 100 μM TPEN (right). Confocal images were taken from a middle optical section (vertical dimension) of the cell samples. (b) Confocal fluorescence images of NO-triggered release of endogenous Zn^2+ in live COS-7 cells. Incubation of cells with 20 μM ZNP1-Ac for 20 min at 37° C. (left), ZNP1-stained cells treated with 10 mM SNOC (S-nitrosocysteine, middle) for 1 hr, and reversal of the observed ratio increases with 2 mM TPEN (right). Confocal images were taken from a middle optical section (vertical dimension) of the cell samples.
We therefore prepared the non-fluorescent diacetate derivative of ZNP1, ZNP1-Ac, anticipating that this more lipophilic derivative would permeate the cell and be transformed to fluorescent ZNP1 by the action of intracellular esterases. […] Ratiometric fluorescence imaging of ZNP1-stained cells is readily performed by using the META detection system operating in lambda mode with optical windows centered at 612 and 526 nm. […] Prompt increases in the ratio of cytosolic fluorescence intensities collected at 612 and 526 nm are observed upon the addition of exogenous Zn^2+ (50 μM) carried by the ionophore pyrithione (2-mercaptopyridine N-oxide, FIG. 5a). […]
The successful use of ZNP1 for monitoring changes in intracellular Zn^2+ concentrations using ratiometric fluorescence imaging led us to apply this probe for detecting endogenous pools of intracellular Zn^2+. […]

increase of λ624/λ528 emission ratio on Zn2+ binding ([2]; 499-nm excitation) [fold] | quantum yield, Zn2+ complex ([2]; Zn2+-bound, 50 mM HEPES, 100 mM KCl) | quantum yield, apo ([2]; no Zn2+, EDTA present, 50 mM HEPES, 100 mM KCl, reference fluorescein in 0.1 N NaOH) | permeability to cell membranes (COS-7 cells; initial experiments) | SMILES | selectivity for Hg2+ over other metal ions (in words) [1] | time of fluorescence response to buffered Zn2+ ([2]; 20 μM probe, free Zn2+ 0-10.2 nM) | ratio of emission intensities λ624/λ528 in the absence of Zn2+ ([2]; 499-nm excitation) | ratio of emission intensities λ624/λ528 in the presence of Zn2+ ([2]; 499-nm excitation) | selectivity for Zn2+ over other metal ions (in words) [3] | emission profiles of apo or Zn2+-bound probe in the presence of Ca2+ or Mg2+ ([3]; 10 μM probe, 2 mM Ca2+ or Mg2+, pH 7.5) | ratiometric response to subsequent addition of 100 μM Zn2+ in the presence of first-row transition metal ions ([3]; 10 μM probe, Cu2+, Ni2+, Co2+, Fe2+, Mn2+ 100 μM, then 100 μM Zn2+) | change in emission ratio with Cu2+, Ni2+, Co2+, Fe2+, Mn2+ ([3]; 10 μM probe, metal ions at 10-fold excess over probe) | monitoring of intracellular [Zn2+] changes (612/526 nm ratio) (COS-7 cells; stained COS-7 cells, 50 μM Zn2+/pyrithione, then 100 μM TPEN) | detection of NO-triggered release of endogenous Zn2+ (612/526 nm ratio) (COS-7 cells; stained COS-7 cells, 10 mM S-nitrosocysteine, reversed by 2 mM TPEN)
 |  |  |  | CCSCCN(Cc1ccccn1)Cc1ccccc1NCc1c2oc3c(ccc4cc(O)ccc43)c(-c3ccccc3C(=O)O)c-2ccc1=O [MS4] | selectivity for Hg^2+ over metal ions such as Na^+, Ca^2+, and Mg^2+ |  |  |  |  |  |  |  |  | 
 |  |  |  | CCSCCN(CCSCC)Cc1ccccc1NCc1c2oc3c(ccc4cc(O)ccc43)c(-c3ccccc3C(=O)O)c-2ccc1=O [MS5, 2-{11-[(2-{[Bis-(2-ethylsulfanylethyl)amino]methyl}phenylamino)methyl]-3-hydroxy-10-oxo-10H-benzo[c]xanthen-7-yl}benzoic acid] | selectivity for Hg^2+ over metal ions such as Na^+, Ca^2+, and Mg^2+ |  |  |  |  |  |  |  |  | 
18 | 0.05 | 0.02 | impermeable to cell membranes | O=C(O)c1ccccc1-c1c2ccc(=O)c(CNc3ccccc3CN(Cc3ccccn3)Cc3ccccn3)c-2oc2c1ccc1cc(O)ccc12 [ZNP1, 4-[12-{Bis(2-pyridylmethyl)aminomethyl}-N-methylaniline]-3,10-dibenzoate-spiro[7H-benzo[c]xanthen-7,1′(3′H)-isobenzofuran]-3′-one] |  | immediately upon mixing | 0.4 | 7.1 | selectivity for Zn^2+ over metal ions such as Na^+, K^+, Ca^2+, and Mg^2+ | unperturbed | only the sample containing Mn^2+ affords a ratiometric fluorescence response | no discernable change in emission ratios | can monitor changes in intracellular [Zn^2+] reversibly | establishes a rise in intracellular [Zn^2+]
